Results from patent publication US9732061B2, “Cinnoline derivatives useful as CB-1 receptor inverse agonists” (Janssen Pharmaceutica NV, priority 2015, dated 2017).
pEC50: −log10 of the molar value.

Key:
[1] = target: Human CB2R (Cannabanoid receptor 2) (Homo sapiens (Human), UniProt P34972); assay: CB-2 in vitro cAMP (HTRF) assay; type: cell-based; conditions: HEK-293 cells stably transfected with human CB2R, 250 nM Forskolin, mean where tested more than once
Excerpt: (§1) CB1 and CB2 receptors are Gi-coupled GPCR. Activation of CB1 and CB2 receptors results in a decrease in cAMP production. An inverse agonist of the CB1 or CB2 receptor results in the opposite effect, an increase of cAMP production. The principle of this assay is based on HTRF® technology (Homogeneous Time-Resolved Fluorescence). The method is a competitive immunoassay between native cAMP produced by cells and the cAMP labeled with the fluorophore d2. The tracer binding is quantified by a Mab anti-cAMP labeled with Eu3+TBP-NHS Cryptate (supplied as part of the assay kit). The specific signal (i.e. energy transfer) is inversely proportional to the concentration of cAMP in the standard or sample.
(§2) Biological Example 1: CB-1 and CB-2 In Vitro Assay
(§3) Human CB1R (Cannabanoid receptor 1) was stably transfected in HEK-293 cells (DiscoveRx, cat: 93-0200C1). Human CB2R (Cannabanoid receptor 2) was stably transfected in HEK-293 cells (DiscoveRx, cat: 93-0201C1). Cell cultures were maintained in media: DMEM (Invitrogen Cat#12430-054) supplemented with 10% HI FBS (Invitrogen Cat#16140-071), 1% L-glutamine (Invitrogen Cat#25030-081), 0.2 mg/ml Hygromycin B (Invitrogen Cat#10687-010), 600 μg/mL G418 (Invitrogen Cat#10131-035), and 1×Penn/Strep (Invitrogen 15140-122). After cell expansion, aliquots were cryo-stored in media containing 5% DMSO (Pierce Cat#20684).
(§4) One day prior to experiments media was warmed to 37° C. and the cryo-stored cells were thawed in a 37° C. water bath. The cells were then added to media (10× volume) and the mixture was centrifugated at 1000 RPM for 5 min. The supernate was removed and the cells were re-suspended in media. A sample of the cell suspension was evaluated on a Cedex XS automated cell counter (Innovatis Systems) to determine viable cells/ml. Additional media was added to the cells to achieve a final cell density of 4E5 cells/mL. The cells were then plated into 384 well PDL white solid bottom plates (Greiner, Cat#781945) at 20 μL per well using a Multidrop (Thermo Scientific). Cells were removed from Row P (location of cAMP standards). Two columns of cells were plated into a clear bottom 384 well PDL coated plate (Greiner, Cat#781944) to view confluence the day of the assay. The cell plates were lidded and stored for 15 minutes in a hood, then transferred to an incubator (37° C., 5% CO2, 95% humidity) overnight.
(§5) DMSO was added to all wells of 384 well V bottom polystyrene plate (Greiner, Cat#781280) except to columns 1 and 13, rows O and P and wells M13-M23 and N13-N23. Test compounds (60 μL, 10 mM) were added to Column 1 and 13 (A1 through N1 and A13 through L13). Test compounds were serially diluted 1/3 by transferring and mixing 20 μl sample with 40 μL DMSO.
(§6) DMSO (40 μL) was added to wells of 384 well V bottom polystyrene plate: O2 through O11, M14 through M23, N14 through N23, and O14 through O23. AM630 (also known as [6-iodo-2-methyl-1-[2-(4-morpholinyl)ethyl]-1H-indol-3-yl](4-methoxyphenyl)-methanone, Cayman Chemical, Cat#10006974) (60 μL, 10 mM) was added to O1; and 1-(2,4-dichlorophenyl)-7-[(4-fluorophenyl)methylene]-4,5,6,7-tetrahydro-N-1-piperidinyl-1H-indazole-3-carboxamide (60 μL, 10 mM) was added to N13. The control was serially diluted 1/3 by transferring and mixing 20 μl sample with 40 μL DMSO. This process resulted 11 doses per control, 10 mM to […].
(§7) Cells plated the day prior to the assay in clear bottom plates were viewed on an inverse microscope to ensure confluency in the range of 60-75%. […]

[2] = target: Human CB1R (Cannabanoid receptor 1) (Homo sapiens (Human), UniProt P21554); assay: CB-1 in vitro cAMP (HTRF) assay; type: cell-based; conditions: HEK-293 cells stably transfected with human CB1R, 250 nM Forskolin, mean where tested more than once
Excerpt: as §1, §2, §3, §4, §5, §6, §7

Sequence of Human CB1R (Cannabanoid receptor 1) (P21554 whole entry): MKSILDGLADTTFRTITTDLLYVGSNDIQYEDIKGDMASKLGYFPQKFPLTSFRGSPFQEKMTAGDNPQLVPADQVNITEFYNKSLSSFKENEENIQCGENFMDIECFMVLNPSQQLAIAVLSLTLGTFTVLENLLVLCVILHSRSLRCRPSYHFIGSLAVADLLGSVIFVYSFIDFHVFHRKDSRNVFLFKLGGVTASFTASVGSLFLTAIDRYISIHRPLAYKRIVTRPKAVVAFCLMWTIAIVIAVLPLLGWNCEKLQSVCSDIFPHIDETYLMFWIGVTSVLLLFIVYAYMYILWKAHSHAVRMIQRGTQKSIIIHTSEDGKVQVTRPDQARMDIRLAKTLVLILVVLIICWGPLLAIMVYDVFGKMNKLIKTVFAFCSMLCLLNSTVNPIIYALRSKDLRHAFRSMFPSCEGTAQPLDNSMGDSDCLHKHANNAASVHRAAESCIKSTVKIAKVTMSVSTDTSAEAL
Sequence of Human CB2R (Cannabanoid receptor 2) (P34972 whole entry): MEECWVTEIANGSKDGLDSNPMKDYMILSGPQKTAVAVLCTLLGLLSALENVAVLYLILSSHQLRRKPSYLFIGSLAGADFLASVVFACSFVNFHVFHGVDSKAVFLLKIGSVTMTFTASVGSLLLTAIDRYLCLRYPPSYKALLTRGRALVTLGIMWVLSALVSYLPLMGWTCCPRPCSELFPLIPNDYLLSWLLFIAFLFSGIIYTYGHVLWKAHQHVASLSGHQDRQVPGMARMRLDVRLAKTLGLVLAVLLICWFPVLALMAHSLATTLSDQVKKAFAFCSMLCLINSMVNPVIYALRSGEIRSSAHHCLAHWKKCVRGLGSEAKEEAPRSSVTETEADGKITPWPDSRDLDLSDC

SMILES: O=S(=O)(c1ccccc1)N1CCC(Nc2cnnc3ccc(C(c4ccc(Cl)cc4)c4ccc(Cl)cc4)cc23)C1 (stereo not drawn) [Compound 27, 6-(bis(4-chlorophenyl)methyl)-N-(1-(phenylsulfonyl)pyrrolidin-3-yl)cinnolin-4-amine]
- pEC50 [1]: 6.07
- pEC50 [2]: 6.57

SMILES: FC(F)(F)c1ccc(CNc2cnnc3ccc(C(c4ccc(Cl)cc4)c4ccc(Cl)cc4)cc23)cc1 [Compound 9, 6-(bis(4-chlorophenyl)methyl)-N-(4-(trifluoromethyl)benzyl)cinnolin-4-amine]
- pEC50 [1]: < 5.00
- pEC50 [2]: 7.40

SMILES: COc1ccc(CNc2cnnc3ccc(C(c4ccc(Cl)cc4)c4ccc(Cl)cc4)cc23)cc1 [Compound 20, 6-(bis(4-chlorophenyl)methyl)-N-(4-methoxybenzyl)cinnolin-4-amine]
- pEC50 [1]: 5.45
- pEC50 [2]: 6.71

SMILES: O=C(O)c1ccccc1CN1CCC(Nc2cnnc3ccc(C(c4ccc(Cl)cc4)c4ccc(Cl)cc4)cc23)CC1 [Compound 18, 2-((4-(6-(bis(4-chlorophenyl)methyl)cinnolin-4-ylamino)piperidin-1-yl)methyl)benzoic acid]
- pEC50 [1]: 5.00
- pEC50 [2]: 5.02

SMILES: O=S(=O)(N1CCC(Nc2cnnc3ccc(C(c4ccc(F)cc4)c4ccc(Cl)cc4)cc23)CC1)C(F)(F)F (stereo not drawn) [Compound 34, 6-((4-chlorophenyl)(4-fluorophenyl)methyl)-N-(1-(trifluoromethylsulfonyl)piperidin-4-yl)cinnolin-4-amine]
- pEC50 [1]: < 5.00
- pEC50 [2]: 7.52

SMILES: FC(F)(F)c1cccc(CNc2cnnc3ccc(C(c4ccc(Cl)cc4)c4ccc(Cl)cc4)cc23)c1 [Compound 8, 6-(bis(4-chlorophenyl)methyl)-N-(3-(trifluoromethyl)benzyl)cinnolin-4-amine]
- pEC50 [1]: < 5.00
- pEC50 [2]: 7.92

SMILES: O=C(O)c1cccc(CN2CCC(Nc3cnnc4ccc(C(c5ccc(Cl)cc5)c5ccc(Cl)cc5)cc34)CC2)c1 [Compound 12, 3-[[4-([6-[bis(4-chlorophenyl)methyl]cinnolin-4-yl]amino)piperidin-1-yl]methyl]benzoic acid]
- pEC50 [1]: 5.19
- pEC50 [2]: 6.52

SMILES: O=S(=O)(c1ccccc1)N1CCC(Nc2cnnc3ccc(C(c4ccc(Cl)cc4)c4ccc(Cl)cc4)cc23)CC1 [Compound 4, 6-(bis(4-chlorophenyl)methyl)-N-(1-(phenylsulfonyl)piperidin-4-yl)cinnolin-4-amine]
- pEC50 [1]: < 5.00
- pEC50 [2]: 7.46

SMILES: O=C(O)c1ccc(CCN2CCC(Nc3cnnc4ccc(C(c5ccc(Cl)cc5)c5ccc(Cl)cc5)cc34)CC2)cc1 [Compound 31, 4-(2-(4-(6-(bis(4-chlorophenyl)methyl)cinnolin-4-ylamino)piperidin-1-yl)ethyl)benzoic acid]
- pEC50 [1]: < 5.00
- pEC50 [2]: 5.18

SMILES: O=C(O)c1cccc(CCN2CCC(Nc3cnnc4ccc(C(c5ccc(Cl)cc5)c5ccc(Cl)cc5)cc34)CC2)c1 [Compound 23, 3-[2-[4-([6-[bis(4-chlorophenyl)methyl]cinnolin-4-yl]amino)piperidin-1-yl]ethyl]benzoic acid]
- pEC50 [1]: < 5.00
- pEC50 [2]: 5.29

SMILES: O=S(=O)(N1CCN(c2cnnc3ccc(C(c4ccc(Cl)cc4)c4ccc(Cl)cc4)cc23)CC1)C(F)(F)F [Compound 24, 6-[bis(4-chlorophenyl)methyl]-4-[4-(trifluoromethane)sulfonylpiperazin-1-yl]cinnoline]
- pEC50 [1]: < 5.00
- pEC50 [2]: 6.58

SMILES: O=S(=O)(N1CCC(Nc2cnnc3ccc(C(O)(c4ccc(Cl)cc4)c4ccc(Cl)cc4)cc23)CC1)C(F)(F)F [Compound 1, bis(4-chlorophenyl)(4-((1-((trifluoromethyl)sulfonyl)piperidin-4-yl)amino)cinnolin-6-yl)methanol]
- pEC50 [1]: < 5.00
- pEC50 [2]: 6.34

SMILES: Clc1ccc(C(c2ccc(Cl)cc2)c2ccc3nncc(NC4CCN(Cc5ccccc5)C4)c3c2)cc1 (stereo not drawn) [Compound 28, N-(1-benzylpyrrolidin-3-yl)-6-(bis(4-chlorophenyl)methyl)cinnolin-4-amine]
- pEC50 [1]: < 5.00
- pEC50 [2]: 5.77

SMILES: O=C(O)c1csc(S(=O)(=O)N2CCC(Nc3cnnc4ccc(C(c5ccc(Cl)cc5)c5ccc(Cl)cc5)cc34)CC2)c1 [Compound 32, 5-[4-([6-[bis(4-chlorophenyl)methyl]cinnolin-4-yl]amino)piperidine-1-sulfonyl]thiophene-3-carboxylic acid]
- pEC50 [1]: 5.70
- pEC50 [2]: 7.40

SMILES: Clc1ccc(C(c2ccc(Cl)cc2)c2ccc3nncc(N4CCC(Nc5ccccc5)CC4)c3c2)cc1 [Compound 29, 1-[6-[bis(4-chlorophenyl)methyl]cinnolin-4-yl]-N-phenylpiperidin-4-amine]
- pEC50 [1]: < 5.00
- pEC50 [2]: 7.00

SMILES: Clc1ccc(C(c2ccc(Cl)cc2)c2ccc3nncc(NC4CCN(CCc5ccccc5)CC4)c3c2)cc1 [Compound 30, 6-(bis(4-chlorophenyl)methyl)-N-(1-phenethylpiperidin-4-yl)cinnolin-4-amine]
- pEC50 [1]: < 5.00
- pEC50 [2]: 6.19

SMILES: O=C(O)c1ccc(CN2CCC(Nc3cnnc4ccc(C(c5ccc(Cl)cc5)c5ccc(Cl)cc5)cc34)CC2)s1 [Compound 15, 5-((4-(6-(bis(4-chlorophenyl)methyl)cinnolin-4-ylamino)piperidin-1-yl)methyl)thiophene-2-carboxylic acid]
- pEC50 [1]: 5.43
- pEC50 [2]: 6.40

SMILES: COc1ccc(C(c2ccc(Cl)cc2)c2ccc3nncc(NC4CCN(S(=O)(=O)C(F)(F)F)CC4)c3c2)cc1 (stereo not drawn) [Compound 35, 6-((4-chlorophenyl)(4-methoxyphenyl)methyl)-N-(1-(trifluoromethylsulfonyl)piperidin-4-yl)cinnolin-4-amine]
- pEC50 [1]: 6.40
- pEC50 [2]: 7.96

SMILES: O=S(=O)(N1CCC(Nc2cnnc3ccc(C(c4ccc(Cl)cc4)c4ccc(Cl)cc4)cc23)CC1)C(F)(F)F [Compound 5, 6-(bis(4-chlorophenyl)methyl)-N-(1-((trifluoromethyl)sulfonyl)piperidin-4-yl)cinnolin-4-amine]
- pEC50 [1]: 5.48
- pEC50 [2]: 7.89

SMILES: Oc1ccc(CNc2cnnc3ccc(C(c4ccc(Cl)cc4)c4ccc(Cl)cc4)cc23)cc1 [Compound 21, 4-((6-(bis(4-chlorophenyl)methyl)cinnolin-4-ylamino)methyl)phenol]
- pEC50 [1]: 5.23
- pEC50 [2]: 5.94

SMILES: O=C(O)c1ccc(CCNc2cnnc3ccc(C(c4ccc(Cl)cc4)c4ccc(Cl)cc4)cc23)cc1 [Compound 37, 4-(2-(6-(bis(4-chlorophenyl)methyl)cinnolin-4-ylamino)ethyl)benzoic acid]
- pEC50 [1]: 5.55
- pEC50 [2]: 5.27

SMILES: O=S(=O)(N1CCC(Nc2cnnc3ccc(C(c4ccc(Cl)cc4)c4ccc(Cl)cc4)cc23)C1)C(F)(F)F (stereo not drawn) [Compound 26, 6-(bis(4-chlorophenyl)methyl)-N-(1-(trifluoromethylsulfonyl)pyrrolidin-3-yl)cinnolin-4-amine]
- pEC50 [1]: 5.71
- pEC50 [2]: 7.02

SMILES: O=S(=O)(N1CCC(Nc2cnnc3ccc(C(c4ccc(Cl)cc4)c4nccs4)cc23)CC1)C(F)(F)F (stereo not drawn) [Compound 36, 6-((4-chlorophenyl)(thiazol-2-yl)methyl)-N-(1-(trifluoromethylsulfonyl)piperidin-4-yl)cinnolin-4-amine]
- pEC50 [1]: 6.18
- pEC50 [2]: 7.55

SMILES: OC(c1ccc(Cl)cc1)(c1ccc(Cl)cc1)c1ccc2nncc(NCc3cccc(C(F)(F)F)c3)c2c1 [Compound 6, bis(4-chlorophenyl)(4-((3-(trifluoromethyl)benzyl)amino)cinnolin-6-yl)methanol]
- pEC50 [1]: < 5.00
- pEC50 [2]: 6.60
